Consider 2 substances from EP1661584A1, “Use of conjugates of amatoxins and phallotoxins with macromolecules for cancer and inflammation therapy” (Faulstich, Heinz, Dr., priority 2004, dated 2006).

In assay [1] the target is DNA-dependent RNA polymerase II (Homo sapiens, UniProt P24928+P30876). The settings on record: complex between amanitin and RNA polymerase II; cited from earlier work.
A further assay relates to actin. The experiment in a line: actin binding. An excerpt:
In all cases the macromolecular conjugates were distinctly more toxic to tumor cells (>1000) than the native toxins. Of high importance for this cytotoxic activity is the presence of a disulfide group in the linker moiety between toxin and macromolecule. After uptake into the tumor cells the disulfide group is cleaved by reduction releasing thiopropionyl-aminophalloidin or thiopropionyl-aminophallacidin into cytoplasm.

For the substance amanitin, the Kd in assay [1] is 3 nM.

Turning to thiopropionyl-aminophalloidin, the “actin binding compared with phalloidin” value in the assay on actin is on record as “as tightly as phalloidin itself”.

As usually defined, the Kd is the equilibrium constant for the complex coming apart.
